How the values were obtained:
Assay type in all cases: functional
Settings in all cases: time 18-20 hrs
Escherichia coli [1] = test: Antibacterial activity against Escherichia coli ATCC35218 assessed as inhibition of bacterial growth incubated for 18 to 20 hrs by two fold serial dilution assay
Klebsiella pneumoniae [2] = test: Antibacterial activity against KPC-2 producing multidrug-resistant Klebsiella pneumoniae clinical isolate 15-1 assessed as inhibition of bacterial growth incubated for 18 to 20 hrs by two fold serial dilution assay
Escherichia coli [3] = test: Antibacterial activity against ESBL-producing multidrug-resistant Escherichia coli clinical isolate 14-4 assessed as inhibition of bacterial growth incubated for 18 to 20 hrs by two fold serial dilution assay
Escherichia coli [4] = test: Antibacterial activity against ESBL-producing multidrug-resistant Escherichia coli clinical isolate 14-1 assessed as inhibition of bacterial growth incubated for 18 to 20 hrs by two fold serial dilution assay
Pseudomonas aeruginosa [5] = test: Antibacterial activity against IMP-4 producing multidrug-resistant Pseudomonas aeruginosa clinical isolate 17-13 assessed as inhibition of bacterial growth incubated for 18 to 20 hrs by two fold serial dilution assay
Klebsiella pneumoniae [6] = test: Antibacterial activity against KPC-2 producing multidrug-resistant Klebsiella pneumoniae clinical isolate 15-3 assessed as inhibition of bacterial growth incubated for 18 to 20 hrs by two fold serial dilution assay
Acinetobacter baumannii [7] = test: Antibacterial activity against OXA-23 producing multidrug-resistant Acinetobacter baumannii clinical isolate 15-1 assessed as inhibition of bacterial growth incubated for 18 to 20 hrs by two fold serial dilution assay
Acinetobacter baumannii [8] = test: Antibacterial activity against OXA-23 producing multidrug-resistant Acinetobacter baumannii clinical isolate 15-5 assessed as inhibition of bacterial growth incubated for 18 to 20 hrs by two fold serial dilution assay
Acinetobacter baumannii [9] = test: Antibacterial activity against OXA-23 producing multidrug-resistant Acinetobacter baumannii clinical isolate 15-3 assessed as inhibition of bacterial growth incubated for 18 to 20 hrs by two fold serial dilution assay
Klebsiella pneumoniae [10] = test: Antibacterial activity against KPC-2 producing multidrug-resistant Klebsiella pneumoniae clinical isolate 15-5 assessed as inhibition of bacterial growth incubated for 18 to 20 hrs by two fold serial dilution assay
Escherichia coli [11] = test: Antibacterial activity against ESBL-producing multidrug-resistant Escherichia coli clinical isolate 14-2 assessed as inhibition of bacterial growth incubated for 18 to 20 hrs by two fold serial dilution assay
Pseudomonas aeruginosa [12] = test: Antibacterial activity against IMP-4 producing multidrug-resistant Pseudomonas aeruginosa clinical isolate 19-17 assessed as inhibition of bacterial growth incubated for 18 to 20 hrs by two fold serial dilution assay
Acinetobacter baumannii [13] = test: Antibacterial activity against OXA-23 producing multidrug-resistant Acinetobacter baumannii clinical isolate 15-4 assessed as inhibition of bacterial growth incubated for 18 to 20 hrs by two fold serial dilution assay
Acinetobacter baumannii [14] = test: Antibacterial activity against OXA-23 producing multidrug-resistant Acinetobacter baumannii clinical isolate 15-2 assessed as inhibition of bacterial growth incubated for 18 to 20 hrs by two fold serial dilution assay
Klebsiella pneumoniae [15] = test: Antibacterial activity against KPC-2 producing multidrug-resistant Klebsiella pneumoniae clinical isolate 15-2 assessed as inhibition of bacterial growth incubated for 18 to 20 hrs by two fold serial dilution assay
Pseudomonas aeruginosa [16] = test: Antibacterial activity against IMP-4 producing multidrug-resistant Pseudomonas aeruginosa clinical isolate 17-1 assessed as inhibition of bacterial growth incubated for 18 to 20 hrs by two fold serial dilution assay
Pseudomonas aeruginosa [17] = test: Antibacterial activity against IMP-4 producing multidrug-resistant Pseudomonas aeruginosa clinical isolate 15-5 assessed as inhibition of bacterial growth incubated for 18 to 20 hrs by two fold serial dilution assay
Pseudomonas aeruginosa [18] = test: Antibacterial activity against IMP-4 producing multidrug-resistant Pseudomonas aeruginosa clinical isolate 15-1 assessed as inhibition of bacterial growth incubated for 18 to 20 hrs by two fold serial dilution assay
Pseudomonas aeruginosa [19] = test: Antibacterial activity against IMP-4 producing multidrug-resistant Pseudomonas aeruginosa clinical isolate 15-4 assessed as inhibition of bacterial growth incubated for 18 to 20 hrs by two fold serial dilution assay
Pseudomonas aeruginosa [20] = test: Antibacterial activity against Pseudomonas aeruginosa ATCC 27853 assessed as inhibition of bacterial growth incubated for 18 to 20 hrs by two fold serial dilution assay
Pseudomonas aeruginosa [21] = test: Antibacterial activity against IMP-4 producing multidrug-resistant Pseudomonas aeruginosa clinical isolate 19-1 assessed as inhibition of bacterial growth incubated for 18 to 20 hrs by two fold serial dilution assay
Acinetobacter baumannii [22] = test: Antibacterial activity against OXA-23 producing multidrug-resistant Acinetobacter baumannii clinical isolate 17-2 assessed as inhibition of bacterial growth incubated for 18 to 20 hrs by two fold serial dilution assay
Pseudomonas aeruginosa [23] = test: Antibacterial activity against IMP-4 producing multidrug-resistant Pseudomonas aeruginosa clinical isolate 19-5 assessed as inhibition of bacterial growth incubated for 18 to 20 hrs by two fold serial dilution assay

Row | SMILES | MIC (Escherichia coli [1]) [µg/mL] | MIC (Klebsiella pneumoniae [2]) [µg/mL] | MIC (Escherichia coli [3]) [µg/mL] | MIC (Escherichia coli [4]) [µg/mL] | MIC (Pseudomonas aeruginosa [5]) [µg/mL] | MIC (Klebsiella pneumoniae [6]) [µg/mL] | MIC (Acinetobacter baumannii [7]) [µg/mL] | MIC (Acinetobacter baumannii [8]) [µg/mL] | MIC (Acinetobacter baumannii [9]) [µg/mL] | MIC (Klebsiella pneumoniae [10]) [µg/mL] | MIC (Escherichia coli [11]) [µg/mL] | MIC (Pseudomonas aeruginosa [12]) [µg/mL] | MIC (Acinetobacter baumannii [13]) [µg/mL] | MIC (Acinetobacter baumannii [14]) [µg/mL] | MIC (Klebsiella pneumoniae [15]) [µg/mL] | MIC (Pseudomonas aeruginosa [16]) [µg/mL] | further results
1 | Nc1nc(/C(=N/OC(C(=O)O)C2CCSCC2)C(=O)N[C@@H]2C(=O)N3C(C(=O)O)=C(CSCCNC(=O)c4ccc(O)c(O)c4Cl)CS[C@H]23)cs1.O=C(O)C(F)(F)F (stereo partly drawn) | 0.25 | 2 | 0.25 | 0.125 | 1 | 4 | 4 | 4 | 4 | 8 | 0.5 | 0.5 | 8 | 8 | 4 |  | 
2 | C[C@@](O/N=C(\C(=O)N[C@@H]1C(=O)N2C(C(=O)O)=C(CSCCNC(=O)c3ccc(O)c(O)c3Cl)CS[C@H]12)c1csc(N)n1)(C(=O)O)C(F)(F)F.O=C(O)C(F)(F)F | 0.06 | 1 | 0.5 | 0.125 | 0.125 | 2 | 16 | 16 | 32 | 1 | 0.5 | 0.5 | 16 | 32 | 1 | 4 | 
3 | CC(C)(O/N=C(\C(=O)N[C@@H]1C(=O)N2C(C(=O)O)=C(CSCCCNC(=O)c3ccc(O)c(O)c3Cl)CS[C@H]12)c1csc(N)n1)C(=O)O.O=C(O)C(F)(F)F |  | 16 | 16 | 0.125 |  | 8 | 32 | 64 | 32 | 4 | 2 |  | 64 | 64 | 4 |  | MIC (Pseudomonas aeruginosa [17]): 4 µg/mL; MIC (Pseudomonas aeruginosa [18]): 1 µg/mL; MIC (Pseudomonas aeruginosa [19]): 2 µg/mL; MIC (Pseudomonas aeruginosa [20]): 4 µg/mL
4 | Nc1nc(/C(=N/OC(C(=O)O)C2CCC2)C(=O)N[C@@H]2C(=O)N3C(C(=O)O)=C(CSCCNC(=O)c4ccc(O)c(O)c4Cl)CS[C@H]23)cs1.O=C(O)C(F)(F)F (stereo partly drawn) | 0.125 | 8 | 0.25 | 0.5 | 1 | 16 | 32 | 64 | 16 | 4 | 4 | 0.5 | 32 | 32 | 4 | 8 | 
5 | Nc1nc(/C(=N/OC(C(=O)O)C2CCS(=O)(=O)CC2)C(=O)N[C@@H]2C(=O)N3C(C(=O)O)=C(CSCCNC(=O)c4ccc(O)c(O)c4Cl)CS[C@H]23)cs1.O=C(O)C(F)(F)F (stereo partly drawn) |  | 2 | 0.5 | 1 | 1 | 2 | 2 | 4 | 2 | 0.5 | 1 | 2 | 4 | 2 | 2 |  | 
6 | Nc1nc(/C(=N/OC(C(=O)O)C2CCOCC2)C(=O)N[C@@H]2C(=O)N3C(C(=O)O)=C(CSCCNC(=O)c4ccc(O)c(O)c4Cl)CS[C@H]23)cs1.O=C(O)C(F)(F)F (stereo partly drawn) | 4 | 16 | 4 | 8 | 1 | 8 | 32 | 16 | 16 | 16 | 16 | 8 | 32 | 32 | 16 |  | 
7 | CC(C)(O/N=C(\C(=O)N[C@@H]1C(=O)N2C(C(=O)O)=C(CSCCNC(=O)c3ccc(O)c(O)c3Cl)CS[C@H]12)c1csc(N)n1)C(=O)O.O=C(O)C(F)(F)F |  | 8 | 1 | 0.25 |  | 8 | 32 | 64 | 32 | 2 | 2 |  | 32 | 32 | 4 |  | MIC (Pseudomonas aeruginosa [17]): 4 µg/mL; MIC (Pseudomonas aeruginosa [18]): 2 µg/mL; MIC (Pseudomonas aeruginosa [19]): 4 µg/mL; MIC (Pseudomonas aeruginosa [20]): 0.5 µg/mL
8 | Nc1nc(/C(=N/OC(C(=O)O)C2CC2)C(=O)N[C@@H]2C(=O)N3C(C(=O)O)=C(CSCCNC(=O)c4ccc(O)c(O)c4Cl)CS[C@H]23)cs1.O=C(O)C(F)(F)F (stereo partly drawn) | 0.25 | 16 | 0.5 | 0.5 | 1 | 64 | 32 | 64 | 64 | 4 | 4 | 1 | 64 | 64 | 4 | 1 | 
9 | Nc1nc(/C(=N/OC(C(=O)O)C2CCCC2)C(=O)N[C@@H]2C(=O)N3C(C(=O)O)=C(CSCCNC(=O)c4ccc(O)c(O)c4Cl)CS[C@H]23)cs1.O=C(O)C(F)(F)F (stereo partly drawn) | 0.25 | 2 | 0.25 | 0.25 | 8 | 4 | 32 | 32 | 16 | 2 | 2 | 1 | 16 | 16 | 2 | 1 | 
10 | Cc1sc(N)nc1/C(=N/OC(C(=O)O)C1CCC(F)(F)CC1)C(=O)N[C@@H]1C(=O)N2C(C(=O)O)=C(CSCCNC(=O)c3ccc(O)c(O)c3Cl)CS[C@H]12.O=C(O)C(F)(F)F (stereo partly drawn) | 0.25 | 2 | 0.5 | 0.5 | 0.25 | 8 | 4 | 2 | 4 | 2 | 1 | 0.25 | 4 | 2 | 4 |  | MIC (Pseudomonas aeruginosa [21]): 8 µg/mL; MIC (Acinetobacter baumannii [22]): 0.125 µg/mL; MIC (Pseudomonas aeruginosa [23]): 1 µg/mL

Source: ChEMBL document CHEMBL5543142, “Discovery of YFJ-36: Design, Synthesis, and Antibacterial Activities of Catechol-Conjugated β-Lactams against Gram-Negative Bacteria” (J Med Chem, 2024)
